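Tested at 5 concentrations; 48 h exposure; 96-well plates; endpoints linearly interpolated, else capped at highest concentration. GI50: concentration for 50% inhibition of growth.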 Activity calls are given as the source filed them. Rule as the data show it: active = GI50 up to about 1.1 µM and inactive = higher.
What was measured:
Assay in all cases: NCI anticancer screen, dose series, 48 h
[1] = system: OVCAR-8
[2] = system: MDA-MB-435
[3] = system: RXF 393
[4] = system: SK-MEL-28
[5] = system: MDA-MB-231
[6] = system: SK-OV-3
[7] = system: TK-10
[8] = system: HCT-15
[9] = system: IGROV-1
[10] = system: OVCAR-5
[11] = system: OVCAR-4
[12] = system: HCC 2998
[13] = system: BT-549
[14] = system: EKVX
[15] = system: SK-MEL-2
[16] = system: SR
[17] = system: HCT-116
[18] = system: KM12
[19] = system: UACC-257
[20] = system: NCI-H522
[21] = system: MCF7
[22] = system: NCI-H226
[23] = system: SF-295
[24] = system: HL-60
[25] = system: SK-MEL-5
[26] = system: HOP-62
[27] = system: NCI/ADR-RES
[28] = system: 786-0
[29] = system: NCI-H460
[30] = system: Hs-578T
[31] = system: HT-29
[32] = system: ACHN
[33] = system: SNB-19
[34] = system: LOX IMVI
[35] = system: Malme-3M
[36] = system: NCI-H23
[37] = system: RPMI-8226
[38] = system: A498
[39] = system: T47D
[40] = system: K562
[41] = system: CAKI-1
[42] = system: UO-31
[43] = system: DU-145
[44] = system: U-251
[45] = system: M14
[46] = system: PC-3
[47] = system: CCRF-CEM
[48] = system: SW-620
[49] = system: SN12C
[50] = system: UACC-62
[51] = system: HOP-92
[52] = system: MOLT-4
[53] = system: SF-268
[54] = system: COLO 205
[55] = system: MDA-N
[56] = system: A549
[57] = system: SNB-75
[58] = system: OVCAR-3
[59] = system: SF-539

Structure (SMILES): CCOC(=O)CN1C(=O)c2c(NC(=O)C(=O)O)cccc2S1(=O)=O
- GI50 [1]: > 100 µM (inactive)
- GI50 [2]: > 100 µM (inactive)
- GI50 [3]: > 100 µM (inactive)
- GI50 [4]: > 100 µM (inactive)
- GI50 [5]: > 100 µM (inactive)
- GI50 [6]: > 100 µM (inactive)
- GI50 [7]: > 100 µM (inactive)
- GI50 [8]: > 100 µM
- GI50 [9]: > 100 µM (inactive)
- GI50 [10]: > 100 µM (inactive)
- GI50 [11]: > 100 µM (inactive)
- GI50 [12]: > 100 µM (inactive)
- GI50 [13]: > 100 µM (inactive)
- GI50 [14]: > 100 µM (inactive)
- GI50 [15]: > 100 µM (inactive)
- GI50 [16]: > 100 µM (inactive)
- GI50 [17]: > 100 µM (inactive)
- GI50 [18]: > 100 µM (inactive)
- GI50 [19]: > 100 µM (inactive)
- GI50 [20]: > 100 µM (inactive)
- GI50 [21]: > 100 µM (inactive)
- GI50 [22]: > 100 µM (inactive)
- GI50 [23]: > 100 µM (inactive)
- GI50 [24]: > 100 µM (inactive)
- GI50 [25]: > 100 µM (inactive)
- GI50 [26]: > 100 µM (inactive)
- GI50 [27]: > 100 µM (inactive)
- GI50 [28]: > 100 µM (inactive)
- GI50 [29]: > 100 µM (inactive)
- GI50 [30]: > 100 µM (inactive)
- GI50 [31]: > 100 µM (inactive)
- GI50 [32]: > 100 µM (inactive)
- GI50 [33]: > 100 µM (inactive)
- GI50 [34]: > 100 µM (inactive)
- GI50 [35]: > 100 µM (inactive)
- GI50 [36]: > 100 µM (inactive)
- GI50 [37]: > 100 µM (inactive)
- GI50 [38]: > 100 µM (inactive)
- GI50 [39]: > 100 µM (inactive)
- GI50 [40]: > 100 µM (inactive)
- GI50 [41]: > 100 µM (inactive)
- GI50 [42]: > 100 µM (inactive)
- GI50 [43]: > 100 µM (inactive)
- GI50 [44]: > 100 µM (inactive)
- GI50 [45]: > 100 µM (inactive)
- GI50 [46]: > 100 µM (inactive)
- GI50 [47]: > 100 µM (inactive)
- GI50 [48]: > 100 µM (inactive)
- GI50 [49]: > 100 µM (inactive)
- GI50 [50]: > 100 µM (inactive)
- GI50 [51]: > 100 µM (inactive)
- GI50 [52]: > 100 µM (inactive)
- GI50 [53]: > 100 µM (inactive)
- GI50 [54]: > 100 µM (inactive)
- GI50 [55]: > 100 µM (inactive)
- GI50 [56]: > 100 µM (inactive)

Structure (SMILES): CN(CC(=O)O)c1ccc(/C=C/c2ccnc3ccccc23)cc1
- GI50 [1]: 27.7 µM (inactive)
- GI50 [2]: 14.1 µM (inactive)
- GI50 [3]: 14.8 µM (inactive)
- GI50 [4]: 40 µM (inactive)
- GI50 [5]: 27 µM (inactive)
- GI50 [6]: 28.9 µM (inactive)
- GI50 [7]: 19.7 µM (inactive)
- GI50 [8]: 31.9 µM
- GI50 [9]: 13.9 µM (inactive)
- GI50 [10]: 29.2 µM (inactive)
- GI50 [12]: 25.4 µM (inactive)
- GI50 [13]: 16.3 µM (inactive)
- GI50 [14]: 4.47 µM (inactive)
- GI50 [15]: 18.8 µM (inactive)
- GI50 [16]: 6.93 µM (inactive)
- GI50 [17]: 23.8 µM (inactive)
- GI50 [18]: 13.2 µM (inactive)
- GI50 [19]: 25.4 µM (inactive)
- GI50 [20]: 5.47 µM (inactive)
- GI50 [21]: 5.02 µM (inactive)
- GI50 [23]: 18.1 µM (inactive)
- GI50 [24]: 11.4 µM (inactive)
- GI50 [25]: 16 µM (inactive)
- GI50 [26]: 31.3 µM (inactive)
- GI50 [27]: 29.2 µM (inactive)
- GI50 [28]: 28.1 µM (inactive)
- GI50 [29]: 21.4 µM (inactive)
- GI50 [57]: 24.8 µM (inactive)
- GI50 [30]: 25.4 µM (inactive)
- GI50 [31]: 23 µM (inactive)
- GI50 [32]: 34.4 µM (inactive)
- GI50 [33]: 30.1 µM (inactive)
- GI50 [34]: 22.3 µM (inactive)
- GI50 [36]: 33.3 µM (inactive)
- GI50 [37]: 13.3 µM (inactive)
- GI50 [38]: 17.1 µM (inactive)
- GI50 [39]: 20.2 µM (inactive)
- GI50 [40]: 23.7 µM (inactive)
- GI50 [41]: 18.5 µM (inactive)
- GI50 [58]: 27.9 µM (inactive)
- GI50 [42]: 15.7 µM (inactive)
- GI50 [43]: 33.6 µM (inactive)
- GI50 [59]: 27.9 µM (inactive)
- GI50 [44]: 22.8 µM (inactive)
- GI50 [45]: 22.2 µM (inactive)
- GI50 [46]: 27.4 µM (inactive)
- GI50 [47]: 13.8 µM (inactive)
- GI50 [48]: 29.4 µM (inactive)
- GI50 [49]: 25.5 µM (inactive)
- GI50 [50]: 19.6 µM (inactive)
- GI50 [51]: 22.9 µM (inactive)
- GI50 [53]: 19.1 µM (inactive)
- GI50 [54]: 16 µM (inactive)
- GI50 [55]: 12.5 µM (inactive)
- GI50 [56]: 17.5 µM (inactive)

Reference: ChEMBL document CHEMBL1201862, “PubChem BioAssay data set” (2004)
